Measured values taken from patent US9067900B2, “Diaminophenothiazine compounds, a method for preparing same and uses thereof” (PHARMA HYDRO DEVELOPMENT—P.H.D., priority 2007, dated 2015).

Assays:
[1] = tested on: Escherichia coli CIP 54 127; experiment: Biocidal activity test according to EN standards (EN 1040, EN 1275); type: cell-based; conditions: 50 to 100 mg/l in distilled water, contact time 15 to 30 mn
[2] = tested on: Candida albicans IP 48.72; experiment: as above; type: cell-based; conditions: under light
Protocol: The biocidal tests were carried out according to Directive NF EN 1040. Tests were conducted at the same time in the dark and under white light, corresponding to a moderate sunshine (400 KJ/M2) using an ordinary incandescent or halogen lamp. Some tests may be carried out up to 1.3 mW/Cm^2 […] The color change is all the more fast that the solution is illuminated under white light. The tests are performed in sterile glass flasks according to disinfection test standards. Illumination is a sun light illumination or an artificial light illumination and is compared with tests carried out in the dark (glass material is wrapped with aluminium foil). Biocidal activity tests are carried out according to EN standards, for example EN 1040, EN 1275, on reference microbial strains registered under ATCC and CIP, and validated by an accredited laboratory. […] These tests validate as biocide agents as defined by the European pharmacopoeia if the infectious titer reduction is higher than 5. Tests are carried out under white light versus a control in the dark. In all cases, white light accelerates the biocidal phenomenon, for example the biocidal activity under light requires a 15 min-contact time, as opposed to 30 mn in the dark. It should be noted that the DAP 2,8 series may have a “range effect”, that is to say there is a concentration range that is more efficient as compared to higher concentrations.

[3] = tested on: Legionella pneumophila subsp pneumophila CIP 103 854; type: cell-based; conditions: 100 mg/l in distilled water, contact time 15 to 30 mn; dichlorhydrate solution
albino rabbits [4] = experiment: Skin irritation/corrosion, OCDE 404 classification; type: in vivo; conditions: 100 mg/l to 1000 mg/l
[5] = tested on: Pseudomonas aeruginosa CIP 103 467; experiment: Biocidal activity test according to EN standards (EN 1040, EN 1275); type: cell-based; conditions: 50 to 100 mg/l in distilled water, contact time 15 to 30 mn
albino rabbits [6] = experiment: Eye irritation/corrosion, OCDE 405 classification; type: in vivo; conditions: 100 mg/l to 1000 mg/l

CN(C)c1ccc2c(c1)Nc1cc(N(C)C)ccc1S2 [Example 1, N,N,N′,N′-tetramethyl-10H-phenothiazine-2,8-diamine]
Infectious titer reduction (log) [1]: >5.5 log
Infectious titer reduction (log) ([2]; 100 mg/l in distilled water, contact time 30 mn): 3.2 log
Infectious titer reduction ([2]; 250 or 500 mg/l, 30 mn of contact): < 2.8 log
Infectious titer reduction (log) [3]: >5.5 log
irritant or corrosive activity, skin (albino rabbits [4]): non-irritant
Infectious titer reduction (log) [5]: >5.5 log
irritant or corrosive activity, eyes (albino rabbits [6]): non-irritant

CCCN(CCC)c1ccc2c(c1)Nc1cc(N3CCN(C)CC3)ccc1S2 [Example 8, [8-(4-Methyl-piperazin-1-yl)-10H-phenothiazin-2-yl]-dipropylamine]
melting point: 122 to 124 °C

CCCCN(CCCC)c1ccc2c(c1)Nc1cc(N3CCN(C)CC3)ccc1S2 [Example 11, N,N-Dibutyl-[8-(4-methylpiperazin-1-yl)-10H-phenothiazin-2-yl]amine]
melting point: 150 to 152 °C

CCCNc1ccc2c(c1)Nc1cc(N(C)C)ccc1S2 [Example 13, N,N-Dimethyl-N′-propyl-10H-phenothiazine-2,8-diamine]
melting point: 158 to 160 °C
